Results from ChEMBL document CHEMBL3217491, “Design, synthesis and biological evaluation of imidazopyridine/pyrimidine-chalcone derivatives as potential anticancer agents” (2010).
The source made the active and inactive calls. No cut-off for these calls is given here.

Test system: MCF7
Assay: Growth inhibition of human MCF7 cells assessed as cell viability at 4 uM after 24 hrs by MTT assay
Format: functional, cell-based

In the case of COc1ccc(/C=C/C(=O)c2cc(OC)c(OC)c(OC)c2)cc1O, the inhibition is reported as “Active”.
